According to patent US20090170846A1, “INHIBITORS OF THE HIV INTEGRASE ENZYME” (Pfizer Inc, priority 2005, published 2009):
Where two headings read alike, the source gives them in different places.

Legend:
[1] = molecular target: T1, Full-length wild type HIV-1 integrase (SF1) (Human immunodeficiency virus type 1 group M subtype B, UniProt P04585); experiment: Integrase strand-transfer scintillation proximity assay; assay type: biochemical; settings: integrase strand-transfer SPA; read-out: IC50
T1 construct: made in house; host or cells: E. coli BL21 (DE3)
From the text: Integrase Strand-Transfer Scintillation Proximity Assay
Oligonucleotides: Oligonucleotide #1-5′-(biotin)[…]-3′ (SEQ ID NO: 1) and oligonucleotide #2-5′-[…]-3′ (SEQ ID NO: 2), were synthesized by TriLink BioTechnologies, Inc. (San Diego, Calif.). The annealed product represents preprocessed viral ds-DNA derived from the LTR U5 sequence of the viral genome. A ds-DNA control to test for non-specific interactions was made using a 3′ di-deoxy derivative of oligonucleotide #1 annealed to oligonucleotide #2. The CA overhang at the 5′ end of the non-biotinylated strand of the ds-DNA was created artificially by using a complimentary DNA oligonucleotide shortened by 2 base pairs. This configuration eliminates the requisite 3′ processing step of the integrase enzyme prior to the strand-transfer mechanism.
Host ds-DNA was prepared as an unlabeled and [^3H]-thymidine labeled product from annealed oligonucleotide #3-5-[…]-3′ (SEQ ID NO: 3), and oligonucleotide #4-1-5′-[…]-3′ (SEQ ID NO: 4), both synthesized by TriLink BioTechnologies, Inc. (San Diego, Calif.). The annealed product had overhanging 3′ ends of poly(dA). Host DNA was custom radiolabeled by PerkinElmer Life Sciences Inc. (Boston, Mass.) using an enzymatic method with a 12/1 ratio of [methyl-^3H]dTTP/cold ds-DNA to yield 5′-blunt end ds-DNA with a specific activity of >900 Ci/mmol. The radiolabeled product was purified using a NENSORB cartridge and stored in stabilized aqueous solution (PerkinElmer). The final radiolabeled product had six [^3H]-thymidine nucleotides at both 5′ ends of the host ds-DNA.
Reagents: Streptavidin-coated polyvinyltoluene (PVT) SPA beads were purchased from Amersham Biosciences (Piscataway, N.J.). Cesium chloride was purchased from Shelton Scientific, Inc. (Shelton, Conn.). White, polystyrene, flat-bottom, non-binding surface, 96-well plates were purchased from Corning. All other buffer components were purchased from Sigma (St. Louis, Mo.) unless otherwise indicated.
Enzyme Construction Full-length wild type HIV-1 integrase (SF1) sequence (amino acids 1-289) was constructed in a pET24a vector (Novagen, Madison, Wis.). The construct was confirmed through DNA sequencing.
Enzyme Purification Full length wild-type HIV Integrase was expressed in E. coli BL21 (DE3) cells and induced with 1 mM isopropyl-1 thio-β-D-galactopyranoside (IPTG) when cells reached an optical density between 0.8-1.0 at 600 nm. Cells were lysed by microfluidation in 50 mM HEPES pH 7.0, 75 mM NaCl, 5 mM DTT, 1 mM 4-(2-Aminoethyl)benzenesulfonylfluoride HCl (AEBSF). Lysate was then centrifuged 20 minutes at 11 k rpm in GSA rotor in Sorvall RC-5B at 4° C. Supernant was discarded and pellet resuspended in 50 mM HEPES pH 7.0, 750 mM NaCl, 5 mM DTT, 1 mM AEBSF and homogenized in a 40 mL Dounce homogenizer for 20 minutes on ice. Homogenate was then centrifuged 20 minutes at 11 k rpm in SS34 rotor in Sorvall RC-5B at 4° C. Supernant was discarded and pellet resuspended in 50 mM HEPES pH 7.0, 750 mM NaCl, 25 mM CHAPS, 5 mM DTT, 1 mM AEBSF. Preparation was then centrifuged 20 minutes at 11 k rpm in SS34 rotor in Sorvall RC-5B at 4° C.
Supernant was then diluted 1:1 with 50 mM HEPES pH 7.0, 25 mM CHAPS, 1 mM DTT, 1 mM AEBSF and loaded onto a Q-Sepharose column pre-equilibrated with 50 mM HEPES, pH 7.0, 375 mM NaCl, 25 mM CHAPS, 1 mM DTT, 1 mM AEBSF. The flow through peak was collected and NaCl diluted to 0.1 M with 50 mM HEPES pH 7.0, 25 mM CHAPS, 1 mM DTT, 0.5 mM AEBSF and loaded onto a SP-Sepharose column pre-equilibrated with 50 mM HEPES pH 7.0, 100 mM NaCl, 25 mM CHAPS, 1 mM DTT, 0.5 mM AEBSF. After washing the column with the equilibration buffer, a 100 to 400 mM NaCl gradient was run. The eluted integrase was concentrated and run on a S-300 gel diffusion column using 50 mM HEPES pH 7.0, 500 mM NaCl, 25 mM CHAPS, 1 mM DTT, 0.5 mM AEBSF. The peak from this column was concentrated to 0.76 mg/mL and stored at −70° C. and later used for strand transfer assays. […]

[2] = system: RF strain of HIV-1 in CEM-SS cells; experiment: HIV-1 cell protection assay (XTT dye reduction); assay type: cell-based
Experimental: HIV-1 Cell Protection Assay
The antiviral activities of potential modulator compounds (test compounds) were determined in HIV-1 cell protection assays using the RF strain of HIV-1, CEM-SS cells, and the XTT dye reduction method (Weislow, O, S. et al., J. Natl. Cancer Inst 81: 577-586 (1989)). Subject cells were infected with HIV-1 RF virus at an moi of to affect about a 90% kill (for example, an moi in the range of from about 0.025 to about 0.819) or mock infected with medium only and added at 2×10^4 cells per well, with the addition of approximately 200 μL of medium, into 96 well plates containing half-log dilutions of test compounds. Six days later, 50 μl of XTT solution (1 mg/ml XTT tetrazolium and 20 nM phenazine methosulfate) were added to the wells and the plates were reincubated for four hours. Viability, as determined by the amount of XTT formazan produced, was quantified spectrophotometrically by absorbance at 450 nm.
Data from CPE assays were expressed as the percent of formazan produced in compound-treated cells compared to formazan produced in wells of uninfected, compound-free cells. The fifty percent effective concentration (EC50) was calculated as the concentration of compound that affected an increase in the percentage of formazan production in infected, compound-treated cells to 50% of that produced by uninfected, compound-free cells. The 50% cytotoxicity concentration (CC50) was calculated as the concentration of compound that decreased the percentage of formazan produced in uninfected, compound-treated cells to 50% of that produced in uninfected, compound-free cells. The therapeutic index was calculated by dividing the cytotoxicity (CC50) by the antiviral activity (EC50).

[3] = Human immunodeficiency virus 1, CEM-SS, 144 h
[4] = Human immunodeficiency virus 1, 144 h, HIV-1 RF, CEM-SS cells, XTT, six days, read-out: EC50

Structure (SMILES)	IC50 [1]	EC50 [2, 3]	EC50 [2, 4]
CONC(=O)c1cc2c(C(=O)NCc3cnn(C)c3C)cn(Cc3ccc(F)cc3)c2cn1 [Example 11, N~3~-[(1,5-dimethyl-1H-pyrazol-4-yl)methyl]-1-(4-fluorobenzyl)-N~5~- methoxy-1H-pyrrolo[2,3-c]pyridine-3,5-dicarboxamide]	530 nM	67 nM	–
CONC(=O)c1cc2c(C(=O)N3CCC(N(C)C)C3)cn(Cc3ccc(F)cc3)c2cn1 (stereo not shown) [Example 12, 3-{[3-(dimethylamino)pyrrolidin-1-yl]carbonyl)-1-(4-fluorobenzyl)-N-methoxy-1H-pyrrolo[2,3-c]pyridine-5-carboxamide]	801 nM	140 nM	–
CONC(=O)c1cc2c(C(=O)N3CCCC(CO)C3)cn(Cc3ccc(F)cc3)c2cn1 (stereo not shown) [Example 13, 1-(4-fluorobenzyi)-3-{[3-(hydroxymethyl)piperidin-1-yl]carbonyl}-N-methoxy-1H-pyrrolo[2,3-c]pyridine-5-carboxamide]	374 nM	66 nM	–
CN(O)C(=O)c1cc2c(C(=O)NCC34CCCN3CCC4)cn(Cc3ccc(F)cc3)c2cn1 [Example 14, 1-(4-fluorobenzyl)-N~5~- hydroxy-N~5~-methyl-N~3~-(tetrahydro-1H-pyrrolizin-7a(5H)-ylmethyl)-1H-pyrrolo[2,3-c]pyridine-3,5-dicarboxamide]	2600 nM	5400 nM	–
CONC(=O)c1cc2c(C(=O)NC(CC(=O)NC3CC3)C3CC3)cn(Cc3ccc(F)cc3)c2cn1 (stereo not shown) [Example 15, N~3~-[1-cyclopropyl-3-(cyclopropylamino)-3-oxopropyl]-1-(4-fluorobenzyl)-N~5~- methoxy-1H-pyrrolo[2,3-c]pyridine-3,5-dicarboxamide]	300 nM	120 nM	–
CN(O)C(=O)c1cc2c(C(=O)NCCCN3CCCC3=O)cn(Cc3ccc(F)cc3)c2cn1 [Example 16, 1-(4-fluorobenzyl)-N~5~- hydroxy-N~5~-methyl-N~3~-[3-(2-oxopyrrolidin-1-yl)propyl]-1H-pyrrolo[2,3-c]pyridine-3,5-dicarboxamide]	211 nM	180 nM	–
Cc1c(CNC(=O)c2cn(Cc3ccc(F)cc3)c3cnc(C(=O)N(C)O)cc23)cnn1C [Example 17, N~3~-[(1,5-dimethyl-1H-pyrazol-4-yl)methyl]-1-(4-fluorobenzyl)-N~5~- hydroxy-N~5~-methyl-1H-pyrrolo[2,3-c]pyridine-3,5-dicarboxamide]	168 nM	110 nM	–
CN(O)C(=O)c1cc2c(C(=O)NC(CC(=O)NC3CC3)C3CC3)cn(Cc3ccc(F)cc3)c2cn1 (stereo not shown) [Example 18, N~3~-[1-cyclopropyl-3-(cyclopropylamino)-3-oxopropyl]-1-(4-fluorobenzyl)-N~5~- hydroxy-N~5~-methyl-1H-pyrrolo[2,3-c]pyridine-3,5-dicarboxamide]	230 nM	460 nM	–
O=C(NO)c1cc2c(NS(=O)(=O)Cc3ccccc3)cn(Cc3ccc(F)cc3)c2cn1 [Example 19, 3-[(benzylsulfonyl)amino]-1-(4-fluorobenzyl)-N-hydroxy-1H-pyrrolo[2,3-c]pyridine-5-carboxamide]	105 nM	–	18 nM
O=C(NO)c1cc2c(NS(=O)(=O)c3ccc4c(c3)CNCC4)cn(Cc3ccc(F)cc3)c2cn1 [Example 20, 1-(4-fluorobenzyl)-N-hydroxy-3-[(1,2,3,4-tetrahydroisoquinolin-7-ylsulfonyl)amino]-1H-pyrrolo[2,3-c]pyridine-5-carboxamide]	370 nM	–	580 nM
O=C(NO)c1cc2c(NS(=O)(=O)c3ccc(Cl)s3)cn(Cc3ccc(F)cc3)c2cn1 [Example 21, 3-{[(5-chloro-2-thienyl)sulfonyl]amino}-1-(4-fluorobenzyl)-N-hydroxy-1H-pyrrolo[2,3-c]pyridine-5-carboxamide]	102 nM	–	71 nM
CN(O)C(=O)c1cc2c(C(=O)N3CCC[C@H]3CO)cn(Cc3ccc(F)cc3)c2cn1 [Example 22, 1-(4-fluorobenzyl)-N-hydroxy-3-{[(2S)-2-(hydroxymethyl)pyrrolidin-1-yl]carbonyl}-N-methyl-1H-pyrrolo[2,3-c]pyridine-5-carboxamide]	320 nM	170 nM	–
O=C(NO)c1cc2c(C(=O)N3CCC[C@H]3CO)cn(Cc3ccc(F)cc3)c2cn1 [Example 23, 1-(4-fluorobenzyl)-N-hydroxy-3-{[(2S)-2-(hydroxymethyl)pyrrolidin-1-yl]carbonyl}-1H-pyrrolo[2,3-c]pyridine-5-carboxamide]	75 nM	57 nM	–
O=C(CC(NC(=O)c1cn(Cc2ccc(F)cc2)c2cnc(C(=O)NO)cc12)C1CC1)NC1CC1 (stereo not shown) [Example 24, N~3~-[1-cyclopropyl-3-(cyclopropylamino)-3-oxopropyl]-1-(4-fluorobenzyl)-N~5~- hydroxy-1H-pyrrolo[2,3-c]pyridine-3,5-dicarboxamide]	16 nM	380 nM	–
O=C(NO)c1cc2c(C(=O)NCC34CCCN3CCC4)cn(Cc3ccc(F)cc3)c2cn1 [Example 25, 1-(4-fluorobenzyl)-N~5~- hydroxy-N~3~-(tetrahydro-1H-pyrrolizin-7a(5H)-ylmethyl)-1H-pyrrolo[2,3-c]pyridine-3,5-dicarboxamide]	152 nM	250 nM	–
CN(C)C1CCN(C(=O)c2cn(Cc3ccc(F)cc3)c3cnc(C(=O)NO)cc23)C1 (stereo not shown) [Example 26, 3-{[3-(dimethylamino)pyrrolidin-1-yl]carbonyl}-1-(4-fluorobenzyl)-N-hydroxy-1H-pyrrolo[2,3-c]pyridine-5-carboxamide]	158 nM	90 nM	–
O=C(NO)c1cc2c(C(=O)NCCN3CCOCC3)cn(Cc3ccc(F)cc3)c2cn1 [Example 27, 1-(4-fluorobenzyl)-N~5~- hydroxy-N~3~-(2-morpholin-4-ylethyl)-1H-pyrrolo[2,3-c]pyridine-3,5-dicarboxamide]	76 nM	38 nM	–
